Experimental findings from ChEMBL document CHEMBL4152257, “Discovery of novel β-carboline/acylhydrazone hybrids as potent antitumor agents and overcome drug resistance” (Eur J Med Chem, 2018) are described below.

Common to all, as to assay type: functional
In test [1] the test system is MCF7. Briefly: Cell cycle arrest in human MCF7 cells assessed as accumulation at G2/M phase at 10 uM after 18 hrs by propidium iodide staining based flow cytometry (reference value: 9.98%). Background: In flow cytometry, cells or beads pass a laser one at a time.
The test system of test [2] is MCF7. Briefly: Induction of apoptosis in human MCF7 cells assessed as necrotic cells at 3 uM after 48 hrs by annexin V-FITC/PI dual staining based flow cytometry (reference value: 0.16%).
The test system of test [3] is MCF7. The test can be described thus: Induction of apoptosis in human MCF7 cells assessed as viable cells at 100 uM after 48 hrs by annexin V-FITC/PI dual staining based flow cytometry (reference value: 77.8%). The following applies: MCF7, 48 h, read-out: Activity.
Test [4] deals with NCI/ADR-RES. Briefly: Induction of apoptosis in human MCF7/ADR cells assessed as viable cells at 10 uM after 48 hrs by annexin V-FITC/PI dual staining based flow cytometry (reference value: 89.8%). The following applies: read-out: Activity.

For the compound `N#Cc1ccc(COc2cccc(/C=N/NC(=O)c3cc4c(cn3)[nH]c3ccccc34)c2)cc1`, the Activity in test [1] was 7.57%; in test [2] it was 0.26%. In addition, the viability at 100 µM in test [3] is 47.2%. Besides, the viability at 10 µM in test [4] is 70.1%.
